Test results published in patent US20090191173A1, “Induction Of Neurogenesis And Stem Cell Therapy In Combination With Copolymer 1” (priority 2004, published 2009).

Key:
[1] = tested on: neural progenitor cells (NPCs); test: Neuronal differentiation of GFP-expressing NPCs co-cultured with differently activated microglia; format: cell-based, mouse; settings: absence of microglia, insulin 0.02 mg/ml
Protocol: (iii) Neural progenitor cell (NPC) culture. Coronal sections (2 mm thick) of tissue containing the subventricular zone of the lateral ventricle were obtained from the brains of adult C57B16/J mice. […] After centrifugation at 110×g for 15 min at room temperature, the tissue was mechanically dissociated by pipette trituration. […] Cell proliferation rates and cell survival in vitro were determined by staining with 5-bromo-2′-deoxyuridine (BrdU, 2.5 μM; Sigma-Aldrich, St. Louis). For quantification of live and dead cells, live cultures were stained with 1 μg/ml propidium iodide (Molecular Probes, Invitrogen, Carlsbad, Calif.) and 1 μg/ml Hoechst 33342 (Sigma-Aldrich, St. Louis), and cells were counted using Image-Pro (Media Cybernetics, Silver Spring, Md.), as described (Hsieh et al., 2004) (vi) Immunocytochemistry. […]

[2] = tested on: neural progenitor cells (NPCs); test: Oligodendrocyte differentiation (NG2, RIP, GalC) of NPCs co-cultured with activated microglia; format: cell-based, mouse; settings: 5 days, presence of insulin
Protocol: (iii) Neural progenitor cell (NPC) culture. Coronal sections (2 mm thick) of tissue containing the subventricular zone of the lateral ventricle were obtained from the brains of adult C57B16/J mice. The tissue was minced and then incubated for digestion at 37° C., 5% CO2 for 45 min in Earle's balanced salt solution containing 0.94 mg/ml papain (Worthington, Lakewood, N.J.) and 0.18 mg/ml of L-cysteine and EDTA. After centrifugation at 110×g for 15 min at room temperature, the tissue was mechanically dissociated by pipette trituration. Cells obtained from single-cell suspensions were plated (3500 cells/cm^2) in 75-cm^2 Falcon tissue-culture flasks (BD Biosciences, Franklin Lakes, N.J.), in NPC-culturing medium [Dulbecco's modified Eagles's medium (DMEM)/F12 medium (Gibco/Invitrogen, Carlsbad, Calif.) containing 2 mM L-glutamine, 0.6% glucose, 9.6 μg/ml putrescine, 6.3 ng/ml progesterone, 5.2 ng/ml sodium selenite, 0.02 mg/ml insulin, 0.1 mg/ml transferrin, 2 μg/ml heparin (all from Sigma-Aldrich, Rehovot, Israel), fibroblast growth factor-2 (human recombinant, 20 ng/ml), and epidermal growth factor (human recombinant, 20 ng/ml; both from Peprotech, Rocky Hill, N.J.)]. Spheres were passaged every 4-6 days and replated as single cells. Green fluorescent protein (GFP)-expressing neural progenitor cells (NPCs) were obtained as previously described (Pluchino et al., 2003). […]

“insulin: insulin added to differentiation medium (0.02 mg/ml)” was tested, and the “numbers of GFP+/β-III-tubulin+ cells in NPC cultures” value [1] was “did not increase” and the “NG2+ cells” value [2] was “did not affect the incidence of NG2^+ cells”.
